Measured values taken from article PMC4076210, “Discovery of Novel AKT Inhibitors with Enhanced Anti-Tumor Effects in Combination with the MEK Inhibitor” (PLoS ONE, 2014).
Read-outs that look alike come from different tables or passages of the source.

Key:
Test in all cases: Kinase panel
Format in all cases: biochemical
TSSK1(h) = molecular target: T1, TSSK1(h) (Homo sapiens, UniProt Q9BXA7)
T1 construct: purchased Millipore KinaseProfiler
T1 sequence (Q9BXA7 1-367): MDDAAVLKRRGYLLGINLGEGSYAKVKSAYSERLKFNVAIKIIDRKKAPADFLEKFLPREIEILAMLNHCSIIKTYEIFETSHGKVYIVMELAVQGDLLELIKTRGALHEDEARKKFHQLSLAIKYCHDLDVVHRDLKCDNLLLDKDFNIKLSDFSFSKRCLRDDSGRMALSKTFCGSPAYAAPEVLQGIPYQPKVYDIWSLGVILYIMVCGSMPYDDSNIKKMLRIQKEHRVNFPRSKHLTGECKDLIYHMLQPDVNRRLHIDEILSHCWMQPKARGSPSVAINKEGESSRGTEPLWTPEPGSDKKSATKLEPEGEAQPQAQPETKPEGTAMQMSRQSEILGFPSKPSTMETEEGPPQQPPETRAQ

Flt3(h) = molecular target: T2, Flt3(h) (Homo sapiens, UniProt P36888)
T2 construct: purchased Millipore KinaseProfiler
T2 sequence (P36888 27-993): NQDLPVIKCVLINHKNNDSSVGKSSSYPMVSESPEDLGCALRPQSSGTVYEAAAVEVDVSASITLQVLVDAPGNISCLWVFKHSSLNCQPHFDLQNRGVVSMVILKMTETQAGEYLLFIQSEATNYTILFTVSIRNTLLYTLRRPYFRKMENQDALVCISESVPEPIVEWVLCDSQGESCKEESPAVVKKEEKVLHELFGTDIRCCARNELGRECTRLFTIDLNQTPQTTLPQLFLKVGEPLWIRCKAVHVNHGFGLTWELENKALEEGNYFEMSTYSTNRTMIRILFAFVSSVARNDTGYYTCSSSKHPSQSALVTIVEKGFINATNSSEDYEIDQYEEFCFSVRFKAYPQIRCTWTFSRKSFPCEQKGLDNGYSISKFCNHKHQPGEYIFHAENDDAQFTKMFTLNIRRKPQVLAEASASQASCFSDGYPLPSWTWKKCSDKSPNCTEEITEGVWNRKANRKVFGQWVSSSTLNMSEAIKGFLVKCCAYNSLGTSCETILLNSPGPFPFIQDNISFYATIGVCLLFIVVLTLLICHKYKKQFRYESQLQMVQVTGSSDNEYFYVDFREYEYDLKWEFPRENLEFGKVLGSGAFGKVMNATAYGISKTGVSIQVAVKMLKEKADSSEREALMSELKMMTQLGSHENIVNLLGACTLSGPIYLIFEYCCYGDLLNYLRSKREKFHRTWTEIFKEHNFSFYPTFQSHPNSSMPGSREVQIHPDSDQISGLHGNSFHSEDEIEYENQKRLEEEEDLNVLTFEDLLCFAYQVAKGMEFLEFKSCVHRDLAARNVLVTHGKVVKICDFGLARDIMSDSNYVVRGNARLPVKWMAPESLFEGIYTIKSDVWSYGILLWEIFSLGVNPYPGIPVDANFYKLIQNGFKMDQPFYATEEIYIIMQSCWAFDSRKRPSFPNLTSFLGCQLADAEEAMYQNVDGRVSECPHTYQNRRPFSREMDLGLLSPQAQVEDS

TLK2(h) = molecular target: T3, TLK2(h) (Homo sapiens, UniProt Q86UE8)
T3 construct: purchased Millipore KinaseProfiler

EphA8(h) = molecular target: T4, EphA8(h) (Homo sapiens, UniProt P29322)
T4 construct: purchased Millipore KinaseProfiler
T4 sequence (P29322 28-1005): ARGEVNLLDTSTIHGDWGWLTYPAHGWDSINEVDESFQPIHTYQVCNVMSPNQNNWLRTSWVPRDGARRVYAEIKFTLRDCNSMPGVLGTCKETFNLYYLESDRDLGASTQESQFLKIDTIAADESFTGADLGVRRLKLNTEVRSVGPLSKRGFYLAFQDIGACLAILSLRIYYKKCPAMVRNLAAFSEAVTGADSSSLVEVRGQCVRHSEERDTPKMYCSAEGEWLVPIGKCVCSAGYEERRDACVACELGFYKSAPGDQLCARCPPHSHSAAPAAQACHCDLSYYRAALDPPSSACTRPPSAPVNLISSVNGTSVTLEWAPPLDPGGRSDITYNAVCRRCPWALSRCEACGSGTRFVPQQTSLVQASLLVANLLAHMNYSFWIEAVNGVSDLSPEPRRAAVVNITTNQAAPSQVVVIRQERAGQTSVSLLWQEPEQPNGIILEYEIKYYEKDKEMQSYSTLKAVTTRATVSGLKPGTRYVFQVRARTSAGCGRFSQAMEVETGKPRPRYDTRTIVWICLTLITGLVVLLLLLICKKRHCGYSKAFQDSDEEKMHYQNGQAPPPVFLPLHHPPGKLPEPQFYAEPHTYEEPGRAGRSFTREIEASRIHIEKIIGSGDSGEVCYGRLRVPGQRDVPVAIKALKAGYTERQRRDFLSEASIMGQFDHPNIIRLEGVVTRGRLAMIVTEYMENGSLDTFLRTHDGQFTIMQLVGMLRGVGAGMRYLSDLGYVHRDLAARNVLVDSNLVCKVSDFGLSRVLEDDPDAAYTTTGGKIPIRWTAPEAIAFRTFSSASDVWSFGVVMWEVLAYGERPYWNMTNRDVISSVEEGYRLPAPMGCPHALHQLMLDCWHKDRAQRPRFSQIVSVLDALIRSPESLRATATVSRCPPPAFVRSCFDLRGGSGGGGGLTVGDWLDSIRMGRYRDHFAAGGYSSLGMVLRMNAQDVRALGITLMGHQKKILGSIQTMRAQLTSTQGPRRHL

T3 sequence (Q86UE8 whole entry): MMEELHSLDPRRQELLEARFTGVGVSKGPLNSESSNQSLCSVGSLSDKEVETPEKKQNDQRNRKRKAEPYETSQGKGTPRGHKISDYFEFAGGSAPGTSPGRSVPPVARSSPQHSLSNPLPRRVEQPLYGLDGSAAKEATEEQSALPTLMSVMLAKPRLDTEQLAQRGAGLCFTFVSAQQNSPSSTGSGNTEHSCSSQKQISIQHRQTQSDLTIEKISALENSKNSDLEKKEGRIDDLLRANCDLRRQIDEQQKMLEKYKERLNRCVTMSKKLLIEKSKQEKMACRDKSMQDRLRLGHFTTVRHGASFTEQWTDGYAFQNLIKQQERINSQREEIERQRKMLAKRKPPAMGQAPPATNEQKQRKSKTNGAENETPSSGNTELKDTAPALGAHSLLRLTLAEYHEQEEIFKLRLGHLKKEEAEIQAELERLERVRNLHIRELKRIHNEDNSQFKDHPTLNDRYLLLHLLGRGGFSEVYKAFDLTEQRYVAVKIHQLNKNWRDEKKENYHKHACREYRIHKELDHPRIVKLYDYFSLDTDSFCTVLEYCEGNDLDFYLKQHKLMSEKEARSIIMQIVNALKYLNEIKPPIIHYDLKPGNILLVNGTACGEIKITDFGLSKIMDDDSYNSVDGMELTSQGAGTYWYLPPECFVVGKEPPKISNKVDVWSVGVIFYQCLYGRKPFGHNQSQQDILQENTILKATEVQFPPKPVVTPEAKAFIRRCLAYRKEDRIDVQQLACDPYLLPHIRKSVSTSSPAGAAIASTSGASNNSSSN

Row | SMILES | inhibition at 0.5 µM (TSSK1(h)) [%] | inhibition at 10 µM (TSSK1(h)) [%] | inhibition at 0.5 µM (Flt3(h)) [%] | inhibition at 10 µM (Flt3(h)) [%] | inhibition at 0.5 µM (TLK2(h)) [%] | inhibition at 10 µM (TLK2(h)) [%] | inhibition at 0.5 µM (EphA8(h)) [%] | inhibition at 10 µM (EphA8(h)) [%] | inhibition at 0.5 µM (TSSK1(h); 0.5 µM, read-out: % Inhibition) [%] | inhibition at 10 µM (TSSK1(h); 10 µM, read-out: % Inhibition) [%] | inhibition at 0.5 µM (Flt3(h); 0.5 µM, read-out: % Inhibition) [%] | inhibition at 10 µM (Flt3(h); 10 µM, read-out: % Inhibition) [%] | inhibition at 0.5 µM (TLK2(h); 0.5 µM, read-out: % Inhibition) [%] | inhibition at 10 µM (TLK2(h); 10 µM, read-out: % Inhibition) [%] | inhibition at 0.5 µM (EphA8(h); 0.5 µM, read-out: % Inhibition) [%] | inhibition at 10 µM (EphA8(h); 10 µM, read-out: % Inhibition) [%]
1 | Cn1ncc(Cl)c1-c1cc(C(=O)N[C@H](CN)Cc2cccc(F)c2)sc1Cl [GSK2110183] | 16 | 84 | -8 | 24 | -2 | -1 | -19 | -7 |  |  |  |  |  |  |  | 
2 | Cn1ncc(Cl)c1-c1cc(C(=O)N[C@H](CN)Cc2ccc(F)c(F)c2)oc1Cl [GSK2141795] |  |  |  |  |  |  |  |  | 21 | 83 | -12 | 22 | -11 | 10 | -4 | 25
